Source: US11712434B2, “Compound having anti-cancer effect, and preparation method therefor and use thereof” (3D MEDICINES (BEIJING) CO., LTD., priority 2016, dated 2023)

What was measured:
Experiment in all cases: Cell proliferation assay (Alamar Blue)
Assay type in all cases: cell-based
KM12 = KM12 tumor cell line, 6 days culture
Summary of the method: (§1)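 Six-day continuous exposure of log-phase cells to a 9-point compound series (3.16-fold steps from 100 or 30 μM). Residual viability was read by AlamarBlue fluorescence at 560/590 nm. IC50 came from four-parameter curve fitting.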

HCCLM3 = HCCLM3 tumor cell line, 6 days culture
Summary of the method: as §1

SW620 = SW620 tumor cell line, 6 days culture
Summary of the method: as §1

T.T = T.T tumor cell line, 6 days culture
Summary of the method: as §1

NCI-H716 = NCI-H716 tumor cell line, 6 days culture
Summary of the method: as §1

NCI-H1703 = NCI-H1703 (lung cancer cells), 6 days culture
Summary of the method: as §1

SNU886 = SNU886 liver cancer cell line, 6 days culture
Summary of the method: as §1

SNU423 = SNU423 liver cancer cell line, 6 days culture
Summary of the method: as §1

HT1080 = HT1080 tumor cell line, 6 days culture
Summary of the method: as §1

DLD1 = DLD1 tumor cell line, 6 days culture
Summary of the method: as §1

DU145 = DU145 tumor cell line, 6 days culture
Summary of the method: as §1

Alexander cells = Alexander cells liver cancer cell line, 6 days culture
Summary of the method: as §1

HLE = HLE liver cancer cell line, 6 days culture
Summary of the method: as §1

SNU398 = SNU398 liver cancer cell line, 6 days culture
Summary of the method: as §1

LC-2-ad = LC-2-ad tumor cell line, 6 days culture
Summary of the method: as §1

CCRF-CEM = CCRF-CEM tumor cell line, 6 days culture
Summary of the method: as §1

JHH4 = JHH4 liver cancer cell line, 6 days culture
Summary of the method: as §1

Hep3B2.1-7 = Hep3B2.1-7 liver cancer cell line, 6 days culture
Summary of the method: as §1

HT55 = HT55 tumor cell line, 6 days culture
Summary of the method: as §1

NCI-H526 = NCI-H526 tumor cell line, 6 days culture
Summary of the method: as §1

HuTu80 = HuTu80 tumor cell line, 6 days culture
Summary of the method: as §1

HUH7 = HUH7 liver cancer cell line, 6 days culture
Summary of the method: as §1

HUH1 = HUH1 liver cancer cell line, 6 days culture
Summary of the method: as §1

KASUMI-1 = KASUMI-1 (leukemia cells), 6 days culture
Summary of the method: as §1

SNU449 = SNU449 liver cancer cell line, 6 days culture
Summary of the method: as §1

HLF = HLF liver cancer cell line, 6 days culture
Summary of the method: as §1

JHH5 = JHH5 liver cancer cell line, 6 days culture
Summary of the method: as §1

Cc1ccc(F)c(NC(=O)Nc2ccc(-c3cccc4[nH]nc(NC(=O)CCCCCCCCCCCNC(=O)C[C@H](N)C(=O)N[C@@H](CCC(=O)N[C@@H](CCC(=O)N[C@@H](CCC(=O)N[C@@H](CCC(=O)O)C(=O)O)C(=O)O)C(=O)O)C(=O)O)c34)cc2)c1 [Compound 8]
IC50 (KM12; Homo sapiens, 144 h): > 100 µM
IC50 (HCCLM3; Homo sapiens, 144 h): > 100 µM
IC50 (SW620; Homo sapiens, SW-620, 144 h): 65.3 µM
IC50 (T.T; Homo sapiens, TT, 144 h): > 100 µM
IC50 (NCI-H716; Homo sapiens, 144 h): 44.9 µM
IC50 (NCI-H1703; Homo sapiens, 144 h): 0.19 µM
IC50 (SNU886; SNU-886, 144 h): > 100 µM
IC50 (SNU423; Homo sapiens, SNU-423, 144 h): > 100 µM
IC50 (HT1080; Homo sapiens, HT-1080, 144 h): > 100 µM
IC50 (DLD1; Homo sapiens, DLD-1, 144 h): > 100 µM
IC50 (DU145; Homo sapiens, DU-145, 144 h): > 100 µM
IC50 (Alexander cells; 144 h): > 100 µM
IC50 (HLE; Homo sapiens, 144 h): > 100 µM
IC50 (SNU398; Homo sapiens, SNU-398, 144 h): > 100 µM
IC50 (LC-2-ad; Homo sapiens, 144 h): 82.4 µM
IC50 (CCRF-CEM; Homo sapiens, 144 h): > 100 µM
IC50 (JHH4; JHH-4, 144 h): > 100 µM
IC50 (Hep3B2.1-7; 144 h): 80.2 µM
IC50 (HT55; Homo sapiens, 144 h): > 100 µM
IC50 (NCI-H526; Homo sapiens, 144 h): > 100 µM
IC50 (HuTu80; Homo sapiens, 144 h): 50.6 µM
IC50 (HUH7; Homo sapiens, Huh-7, 144 h): 65.4 µM
IC50 (HUH1; Homo sapiens, HuH-1, 144 h): > 100 µM
IC50 (KASUMI-1; Homo sapiens, 144 h): 0.39 µM
IC50 (SNU449; Homo sapiens, SNU-449, 144 h): > 100 µM
IC50 (HLF; 144 h): > 100 µM
IC50 (JHH5; 144 h): > 100 µM

Cc1ccc(F)c(NC(=O)Nc2ccc(-c3cccc4[nH]nc(NC(=O)CCCCCNC(=O)C[C@H](N)C(=O)N[C@@H](CCC(=O)O)C(=O)O)c34)cc2)c1 [Compound 4]
IC50 (KM12): > 100 µM
IC50 (HCCLM3): > 100 µM
IC50 (SW620): > 100 µM
IC50 (T.T): > 100 µM
IC50 (NCI-H716): 82.7 µM
IC50 (NCI-H1703): 1.24 µM
IC50 (SNU886): > 100 µM
IC50 (SNU423): > 100 µM
IC50 (HT1080): > 100 µM
IC50 (DLD1): > 100 µM
IC50 (DU145): > 100 µM
IC50 (Alexander cells): > 100 µM
IC50 (HLE): > 100 µM
IC50 (SNU398): > 100 µM
IC50 (LC-2-ad): > 100 µM
IC50 (CCRF-CEM): > 100 µM
IC50 (JHH4): > 100 µM
IC50 (Hep3B2.1-7): > 100 µM
IC50 (HT55): > 100 µM
IC50 (NCI-H526): > 100 µM
IC50 (HuTu80): 75.4 µM
IC50 (HUH7): > 100 µM
IC50 (HUH1): > 100 µM
IC50 (KASUMI-1): 1.53 µM
IC50 (SNU449): > 100 µM
IC50 (HLF): > 100 µM
IC50 (JHH5): > 100 µM

Cc1ccc(F)c(NC(=O)Nc2ccc(-c3cccc4[nH]nc(NC(=O)C[C@H](N)C(=O)N[C@@H](CCC(=O)N[C@@H](CCC(=O)N[C@@H](CCC(=O)N[C@@H](CCC(=O)O)C(=O)O)C(=O)O)C(=O)O)C(=O)O)c34)cc2)c1 [Compound 2]
IC50 (KM12; Homo sapiens, 144 h): 5.48 µM
IC50 (HCCLM3; Homo sapiens, 144 h): 12 µM
IC50 (SW620; Homo sapiens, SW-620, 144 h): 6.81 µM
IC50 (T.T; Homo sapiens, TT, 144 h): 16.9 µM
IC50 (NCI-H716; Homo sapiens, 144 h): 10.8 µM
IC50 (NCI-H1703; Homo sapiens, 144 h): 0.07 µM
IC50 (SNU886; SNU-886, 144 h): 16.9 µM
IC50 (SNU423; Homo sapiens, SNU-423, 144 h): 33.2 µM
IC50 (HT1080; Homo sapiens, HT-1080, 144 h): 24.9 µM
IC50 (DLD1; Homo sapiens, DLD-1, 144 h): 29.2 µM
IC50 (DU145; Homo sapiens, DU-145, 144 h): 9.34 µM
IC50 (Alexander cells; 144 h): 7.11 µM
IC50 (HLE; Homo sapiens, 144 h): 6.47 µM
IC50 (SNU398; Homo sapiens, SNU-398, 144 h): 4.63 µM
IC50 (LC-2-ad; Homo sapiens, 144 h): 6.37 µM
IC50 (CCRF-CEM; Homo sapiens, 144 h): 10.4 µM
IC50 (JHH4; JHH-4, 144 h): 36.8 µM
IC50 (Hep3B2.1-7; 144 h): 6.32 µM
IC50 (HT55; Homo sapiens, 144 h): 40.1 µM
IC50 (NCI-H526; Homo sapiens, 144 h): 11.3 µM
IC50 (HuTu80; Homo sapiens, 144 h): 4.26 µM
IC50 (HUH7; Homo sapiens, Huh-7, 144 h): 6.33 µM
IC50 (HUH1; Homo sapiens, HuH-1, 144 h): 7.26 µM
IC50 (KASUMI-1; Homo sapiens, 144 h): 0.05 µM
IC50 (SNU449; Homo sapiens, SNU-449, 144 h): 25.7 µM
IC50 (HLF; 144 h): 10.8 µM
IC50 (JHH5; 144 h): 24.7 µM

Cc1ccc(F)c(NC(=O)Nc2ccc(-c3cccc4[nH]nc(NC(=O)CCCCCCCCCCCNC(=O)C[C@H](N)C(=O)O)c34)cc2)c1 [Compound 12]
IC50 (KM12): 82.5 µM
IC50 (HCCLM3): > 100 µM
IC50 (SW620): 55.6 µM
IC50 (T.T): > 100 µM
IC50 (NCI-H716): 35.5 µM
IC50 (NCI-H1703): 0.25 µM
IC50 (SNU886): 41.9 µM
IC50 (SNU423): > 100 µM
IC50 (HT1080): > 100 µM
IC50 (DLD1): > 100 µM
IC50 (DU145): 83 µM
IC50 (Alexander cells): 77.1 µM
IC50 (HLE): > 100 µM
IC50 (SNU398): > 100 µM
IC50 (LC-2-ad): 22.9 µM
IC50 (CCRF-CEM): > 100 µM
IC50 (JHH4): > 100 µM
IC50 (Hep3B2.1-7): 79.6 µM
IC50 (HT55): > 100 µM
IC50 (NCI-H526): > 100 µM
IC50 (HuTu80): 44.4 µM
IC50 (HUH7): 40.6 µM
IC50 (HUH1): > 100 µM
IC50 (KASUMI-1): 0.49 µM
IC50 (SNU449): > 100 µM
IC50 (HLF): > 100 µM
IC50 (JHH5): > 100 µM

Cc1ccc(F)c(NC(=O)Nc2ccc(-c3cccc4[nH]nc(NC(=O)CCCCCCCCCCCNC(=O)C[C@H](N)C(=O)N[C@@H](CCC(=O)O)C(=O)O)c34)cc2)c1 [Compound 7]
IC50 (KM12): 79.1 µM
IC50 (HCCLM3): > 100 µM
IC50 (SW620): 56.3 µM
IC50 (T.T): > 100 µM
IC50 (NCI-H716): 41.6 µM
IC50 (NCI-H1703): 0.11 µM
IC50 (SNU886): 75.2 µM
IC50 (SNU423): > 100 µM
IC50 (HT1080): > 100 µM
IC50 (DLD1): > 100 µM
IC50 (DU145): > 100 µM
IC50 (Alexander cells): > 100 µM
IC50 (HLE): 88.3 µM
IC50 (SNU398): > 100 µM
IC50 (LC-2-ad): 46.4 µM
IC50 (CCRF-CEM): > 100 µM
IC50 (JHH4): > 100 µM
IC50 (Hep3B2.1-7): 40.4 µM
IC50 (HT55): > 100 µM
IC50 (NCI-H526): > 100 µM
IC50 (HuTu80): 27.7 µM
IC50 (HUH7): 42.2 µM
IC50 (HUH1): > 100 µM
IC50 (KASUMI-1): 0.23 µM
IC50 (SNU449): > 100 µM
IC50 (HLF): 72.6 µM
IC50 (JHH5): > 100 µM
